Measurements reported in US20060040884A1, “Antisense oligonucleotides directed to genes regulated by trapoxin-induced HDAC inhibition” (priority 2001, published 2006).
Strand notation (5' to 3'): a small letter for the sugar, then the base; units joined by * are phosphorothioate-linked, units joined directly phosphodiester-linked; [ ] holds rarer units or linkages, { } end groups; capitals alone tell only the bases. e = 2'-O-(2-methoxyethyl) (MOE); [5mC] = 5-methylcytosine; d = 2'-deoxy (DNA)

What was measured:
RhoB = RhoB expression in H1299 cells transfected with antisense oligonucleotides (Western blot); format: cell-based, human; conditions: 400 nM oligonucleotide with LIPOFECTIN, harvested 72 h after first transfection
Method: (§1) H1299 cells are transfected with HDAC1 antisense oligonucleotides NAS 6887, HDAC1 mismatch oligonucleotide NAS 7618, luciferase antisense oligonucleotide NAS 5596, or mock transfected. The following are the sequences of the modified oligonucleotides:
modified such that “s” stands for phosphorothioate, upper case refers to 2′-H, lower case refers to 2′-O-methoxyethyl and “c” refers to 2′-methoxyethyl 5-methylcytidine. Transfection is performed using LIPOFECTIN (Life Technologies) as a carrier according to the manufacturer's instruction. The transfection mixture is prepared in OPTI-MEM (Life Technologies) containing 6 μl LIPOFECTIN per 400 nM oligonucleotide. Transfection is carried out for 4 h, and is repeated twice on two consecutive days. Cells are harvested 72 h after the first transfection. RNA and proteins are isolated using Trizol reagent (Life Technologies) according to the manufacturer's instruction. Traces of DNA are removed from RNA samples using DNA-free (Ambion, Austin, Tex.) according to the manufacturer's protocol. RNA concentration is measured on CytoFluor Multi-well plate reader (PerSeptive Biosystems, Framingham, Mass.) using RIBO GREEN RNA Quantification kit (Molecular Probes, Eugene, Oreg.). Real Time RT-PCR
To determine the effect of specific HDAC1 blockade on RhoB expression, antisense oligonucleotides against HDAC1 were used. Potent antisense oligonucleotides against HDAC1 as well as oligonucleotides with mismatched nucleotides were synthesized and transfected into H1299 cells as specifically disclosed herein and as described in Examples 6-9. […] RNA and protein were isolated from H1299 cells transfected with the HDAC1 antisense oligonucleotides (NAS 6887), the corresponding mismatch (NAS 7618) and the unrelated luciferase control oligonucleotide (NAS 5596), and were analysed by real time RT-PCR and Western blot for HDAC1 and RhoB expression level. […] In contrast, no effects on RhoB expression were found in cells transfected with the NAS 7618 and NAS 5596 oligonucleotides.

HDAC1 = HDAC1 expression in H1299 cells transfected with antisense oligonucleotides (real time RT-PCR, Western blot); format: cell-based, human
Method: as §1
modified such that “s” stands for phosphorothioate, upper case refers to 2′-H, lower case refers to 2′-O-methoxyethyl and “c” refers to 2′-methoxyethyl 5-methylcytidine. Transfection is performed using LIPOFECTIN (Life Technologies) as a carrier according to the manufacturer's instruction. The transfection mixture is prepared in OPTI-MEM (Life Technologies) containing 6 μl LIPOFECTIN per 400 nM oligonucleotide. Transfection is carried out for 4 h, and is repeated twice on two consecutive days. […] RNA concentration is measured on CytoFluor Multi-well plate reader (PerSeptive Biosystems, Framingham, Mass.) using RIBO GREEN RNA Quantification kit (Molecular Probes, Eugene, Oreg.). […]
To determine the effect of specific HDAC1 blockade on RhoB expression, antisense oligonucleotides against HDAC1 were used. […] RNA and protein were isolated from H1299 cells transfected with the HDAC1 antisense oligonucleotides (NAS 6887), the corresponding mismatch (NAS 7618) and the unrelated luciferase control oligonucleotide (NAS 5596), and were analysed by real time RT-PCR and Western blot for HDAC1 and RhoB expression level. […]

Row | Substance | RhoB expression (protein level) (RhoB) | Expression of HDAC1 (real time RT-PCR and Western blot) (HDAC1; H1299 cells, 400 nM oligonucleotide with LIPOFECTIN, harvested 72 h after first transfection) | Inhibition of HDAC1 mRNA level (HDAC1; transfected H1299 cells)
1 | NAS 7618: HDAC1 mismatch oligonucleotide, SEQ ID NO 13: gct ttAs CsGsCs CsTsAs Csag gtt (antisense GCTTTACGCCTACAGGTT; phosphorothioate modifications, chemistry not fully specified) | no effects |  | 
2 | NAS 5596: luciferase antisense control oligonucleotide, SEQ ID NO 14: cct taCs CsTsGs CsTsAs Gsct ggc (antisense CCTTACCTGCTAGCTGGC; phosphorothioate modifications, chemistry not fully specified) | no effects |  | 
3 | NAS 6887: HDAC1 antisense oligonucleotide, SEQ ID NO 12: gct gtAs CsTsCs CsGsAs Csat gtt (antisense eGe[5mC]eTeGeTdA*dC*dT*dC*dC*dG*dA*dC*eAeTeGeTeT) | significantly induced | efficiently blocked | very potent inhibition
